One assay concerns the target T1, rat TRPV1 (Rattus norvegicus, UniProt O35433).
T1 construct: expressed in transfected cells; host or cells: HEK293
The assay can be described thus: Assay for inhibitory activity against VR1 patch clamp activity (capsaicin current, inside-out patch). It counts as cell-based. Conditions: 1 μM compound with 10 μM capsaicin; rat TRPV1-transfected HEK293, inside-out patch; relative to capsaicin current before compound. As for the experimental part:
Each of the compounds synthesized in the examples were dissolved in dimethyl sulfoxide (DMSO) at a concentration of 10 mM. For use in the assay for inhibitory activity against patch clamp activity, the solutions were diluted to a concentration of 1 μM with the same physiological saline as in the pipette solution of Table 1, below.
2) Assay for Inhibitory Activity Against VR1 Patch Clamp Activity
In this experiment, changes in VR1 activity were recorded in current using an electrophysiological technique.
For use in this experiment, a rat TRPV1 cDNA was transfected into a subcultured HEK293 strain with the aid of lipofectamin.
The rat TRPV1 gene-transfected HEK293 cells were detached from the cell culture dishes with trypsin and distributed on a patch clamp recording chamber.
A cover glass slip on the bottom of the patch clamp recording chamber was treated for 15 min or longer with a […] poly-L-lysine solution so that the HEK cells would readily adhere thereto. Cellular membranes were ruptured at room temperature (˜25° C.) from randomly selected HEK cells to perform an inside-out patch clamp technique. 10 μM of capsaicin was fed into the chamber (cytoplasmic side) to activate a capsaicin current through the VR1. When the capsaicin current reached a stable stage, each compound was added along with 10 μM of capsaicin to record the inhibitory activity of the compounds with regard to the current. The inhibition was expressed as percentages.
Detected current was amplified using a Digidata 1200B A/D converter and an Axopatch 1D amplifier (Axon instruments Inc.), and the data were recorded and analyzed with the aid of a computer. The inhibitory activity of each compound was expressed as a percentage relative to the capsaicin current immediately before the administration of each compound.

The target in a further assay is T2, human vanilloid-1 (hVR1) (Homo sapiens, UniProt Q8NER1).
T2 construct: expressed in transfected cells; host or cells: HEK293 Tet-on (hVR1-HEK293), doxycycline-induced
T2 sequence (Q8NER1 whole entry): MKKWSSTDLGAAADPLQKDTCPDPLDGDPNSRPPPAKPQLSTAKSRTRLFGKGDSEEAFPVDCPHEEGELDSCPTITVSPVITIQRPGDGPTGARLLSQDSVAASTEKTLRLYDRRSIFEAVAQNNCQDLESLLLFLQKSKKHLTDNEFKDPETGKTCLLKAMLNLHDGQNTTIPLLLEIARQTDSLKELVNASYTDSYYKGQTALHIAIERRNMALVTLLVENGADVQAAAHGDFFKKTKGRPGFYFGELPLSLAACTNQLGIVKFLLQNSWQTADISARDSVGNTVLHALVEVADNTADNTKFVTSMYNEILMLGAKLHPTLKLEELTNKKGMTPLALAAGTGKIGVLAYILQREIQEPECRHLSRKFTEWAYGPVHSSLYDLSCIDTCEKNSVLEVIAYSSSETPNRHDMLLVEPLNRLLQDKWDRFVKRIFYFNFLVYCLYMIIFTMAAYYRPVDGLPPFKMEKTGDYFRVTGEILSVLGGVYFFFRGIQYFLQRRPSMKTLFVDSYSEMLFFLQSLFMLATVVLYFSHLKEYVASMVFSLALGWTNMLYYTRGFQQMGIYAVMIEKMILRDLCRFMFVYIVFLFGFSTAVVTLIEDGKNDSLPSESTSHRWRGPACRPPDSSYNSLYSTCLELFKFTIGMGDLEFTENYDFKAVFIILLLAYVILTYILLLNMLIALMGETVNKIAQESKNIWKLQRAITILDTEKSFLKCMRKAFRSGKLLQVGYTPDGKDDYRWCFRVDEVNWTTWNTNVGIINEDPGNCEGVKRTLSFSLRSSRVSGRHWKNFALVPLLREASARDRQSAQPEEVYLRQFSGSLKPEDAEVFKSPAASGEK
The assay can be described thus: Calcium influx of vanilloid receptor in hVR1-HEK293 cells (capsaicin-induced, Fluo-3/AM). The format is cell-based. Particulars: 1 μM capsaicin-induced intracellular calcium influx, read-out: Inhibitory Activity IC50. The procedure: Experiments for calcium influx were performed to measure the activity of the compounds as antagonists.
The cell strain hVR1-HEK293 is the human embryonic kidney (HEK) 293 Tet-on cell transfected with a human vanilloid-1 gene (pTRE2hyg-hVR1, 7.8 kb), which is capable of controlling the expression of VR1 according to the administration of deoxycycline, a tetracycline derivative analog. In a medium supplemented with deoxycycline two days before calcium influx experiments, the cell strain was cultured to induce the expression of VR1. After being grown to a confluency of about 80% in T75 flasks, hVR1-HEK293 was detached from the flask using trypsin. Cells harvested by centrifugation were suspended in a medium supplemented with 1 μg/mL of deoxycycline and diluted to a density of 2-4×10^5 cells/mL, after which a 100 μL aliquot of the cell suspension was added to each well of 96 well black plates. Before the measurement of calcium influx, the cells were incubated for two days at 37° C. in a 5% CO2 incubator.
For use in calcium influx experiments, each compound was dissolved in dimethyl sulfoxide (DMSO).
To measure an intracellular calcium influx, cells were incubated at 37° C. for 90 min in a medium containing the calcium indicator Fluo-3/AM so as to allow the fluorescent dye to penetrate into the cells. Then, the cells were washed three times with D-PBS (Dulbecco's phosphate buffered saline) containing 10 mM HEPES to remove the fluorescent dye which remained outside. 193 μL aliquot of D-PBS was added to each well, followed by the addition of various concentrations of compounds thereto. In order to measure the antagonistic activity of the compounds, calcium influx was induced by treatment with 1 μM capsaicin. The inhibitory effect of each compound on 1 μM capsaicin-induced intracellular calcium influx according to compound concentration was measured using a fluorescent analyzer and the data thus obtained were analyzed on the basis of the Hill's equation.

T1 sequence (O35433 whole entry): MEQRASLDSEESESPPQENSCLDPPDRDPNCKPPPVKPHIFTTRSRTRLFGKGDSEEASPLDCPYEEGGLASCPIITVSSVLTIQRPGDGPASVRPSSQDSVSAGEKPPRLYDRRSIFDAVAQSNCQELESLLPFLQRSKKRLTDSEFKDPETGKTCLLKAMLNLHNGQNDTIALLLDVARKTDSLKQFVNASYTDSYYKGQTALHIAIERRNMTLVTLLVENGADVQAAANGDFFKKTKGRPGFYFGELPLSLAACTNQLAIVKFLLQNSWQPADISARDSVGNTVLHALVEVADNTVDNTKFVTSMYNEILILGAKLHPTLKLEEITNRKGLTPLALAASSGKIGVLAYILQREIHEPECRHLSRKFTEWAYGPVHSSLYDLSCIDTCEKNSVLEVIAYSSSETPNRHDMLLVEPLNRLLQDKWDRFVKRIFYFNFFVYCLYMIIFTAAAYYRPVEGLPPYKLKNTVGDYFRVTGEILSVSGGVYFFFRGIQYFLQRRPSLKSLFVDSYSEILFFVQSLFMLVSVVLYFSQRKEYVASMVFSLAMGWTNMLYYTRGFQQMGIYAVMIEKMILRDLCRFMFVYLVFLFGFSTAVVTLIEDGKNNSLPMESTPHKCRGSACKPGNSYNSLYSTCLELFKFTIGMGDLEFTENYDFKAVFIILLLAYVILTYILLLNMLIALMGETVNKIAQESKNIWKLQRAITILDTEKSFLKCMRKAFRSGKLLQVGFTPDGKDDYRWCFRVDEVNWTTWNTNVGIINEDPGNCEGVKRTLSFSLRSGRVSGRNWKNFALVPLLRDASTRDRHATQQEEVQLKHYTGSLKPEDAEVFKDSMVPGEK

Regarding `CC(C)(C)c1ccc2nc(-c3ccc(-c4ncc(Cl)cc4Cl)c(Cl)c3)[nH]c2c1` [Compound 118, 6-tert-butyl-2-[3-chloro-4-(3,5-dichloropyridin-2-yl)phenyl]-1H-benzoimidazole], 1 µM produced 93% inhibition on rat TRPV1. For the same molecule, the IC50 at human vanilloid-1 (hVR1) was determined as 313 nM.

At rat TRPV1, `FC(F)(F)c1ccc2nc(-c3ccc(-c4ncc(Cl)cc4Cl)cn3)[nH]c2c1` [Compound 151, 3,5-dichloro-6′-(6-trifluoromethyl-1H-benzoimidazole-2-yl)-[2,3′]bipyridine] came in with an inhibition at 1 µM of 84%. For the same molecule, the IC50 at human vanilloid-1 (hVR1) was 97 nM.

On to `FC(F)(F)c1ccc2nc(-c3ccc(-c4ncccc4Cl)c4ccccc34)[nH]c2c1` [Compound 104, 2-[4-(3-chloropyridin-2-yl)naphthalen-1-yl]-6-trifluoromethyl-1H-benzoimidazole], for which the inhibition at 1 µM on rat TRPV1 worked out at 86%. Further, at human vanilloid-1 (hVR1), the IC50 came out at 31 nM.

`FC(F)(F)c1cnc2nc(-c3ccc(-c4ncccc4Cl)cc3)[nH]c2c1` [Compound 8, 2-[4-(3-chloropyridin-2-yl)phenyl]-6-trifluoromethyl-1H-imidazo[4,5-b]pyridine] had an inhibition at 1 µM at rat TRPV1 of 41%. Also, the IC50 at human vanilloid-1 (hVR1) amounted to 31 nM.

The molecule `FC(F)(F)c1cnc2nc(-c3ccc(-c4ncccc4C(F)(F)F)cc3)[nH]c2c1` [Compound 34, 6-trifluoromethyl-2-[4-(3-trifluoromethylpyridin-2-yl)phenyl]-1H-imidazo[4,5-b]pyridine] displayed an inhibition at 1 µM at rat TRPV1 of 16%. Also, on human vanilloid-1 (hVR1), the IC50 was 26 nM.

As to `Cc1ccc2nc(-c3ccc(-c4ncccc4Cl)cc3)[nH]c2c1C` [Compound 10, 2-[4-(3-chloropyridin-2-yl)phenyl]-6,7-dimethyl-1H-benzoimidazole], at 1 µM the inhibition against rat TRPV1 was 80%. For the same molecule, the half-inhibitory concentration (IC50) at human vanilloid-1 (hVR1) amounted to 114 nM.

Regarding `CC(C)(C)c1ccc2nc(-c3ccc(-c4ccccn4)c(Cl)c3)[nH]c2c1` [Compound 126, 6-tert-butyl-2-(3-chloro-4-pyridin-2-ylphenyl)-1H-benzoimidazole], at rat TRPV1, testing at 1 µM gave an inhibition of 87%. Also, the IC50 on human vanilloid-1 (hVR1) came to 105 nM.

Regarding `CC(C)(C)c1ccc2nc(-c3ccc(-n4cccc4)cc3)[nH]c2c1` [Compound 181, 6-tert-butyl-2-(4-pyrrol-1-ylphenyl]-1H-benzoimidazole], testing at 1 µM against rat TRPV1 gave an inhibition of 40%. Besides, the IC50 on human vanilloid-1 (hVR1) was determined as 221 nM.

At rat TRPV1, `FC(F)(F)c1cccnc1-c1ccc(-c2nc3ccc(Cl)cc3[nH]2)cc1` [Compound 32, 6-chloro-2-[4-(3-trifluoromethylpyridin-2-yl)phenyl]-1H-benzoimidazole] came in with an inhibition at 1 µM of 78%. The IC50 on human vanilloid-1 (hVR1) was 13 nM.

On rat TRPV1, `CC(C)(C)c1ccc2nc(-c3ccc(-c4ncccc4C(F)(F)F)cc3)[nH]c2c1` [Compound 30, 6-tert-butyl-2-[4-(3-trifluoromethylpyridin-2-yl)phenyl]-1H-benzoimidazole] showed an inhibition at 1 µM of 96%. Further, the IC50 on human vanilloid-1 (hVR1) turned out to be 23 nM.

Take `FC(F)(F)c1cc(Cl)c2nc(-c3ccc(-c4ncccc4C(F)(F)F)cn3)[nH]c2c1` [Compound 161, 6′-(4-chloro-6-trifluoromethyl-1H-benzoimidazole-2-yl)-3-trifluoromethyl-[2,3′]bipyridine and 6′-(5-trifluoromethyl-7-chloro-1H-benzoimidazole-2-yl)-3-trifluoromethyl-[2,3′]bipyridine]: on rat TRPV1, the inhibition at 1 µM is 58%. Moreover, at human vanilloid-1 (hVR1), the IC50 was determined as 23 nM.

On rat TRPV1, `Clc1ccc2nc(-c3ccc(-c4ncccc4Cl)cc3)[nH]c2c1` [Compound 2, 6-chloro-2-[4-(3-chloropyridin-2-yl)phenyl]-1H-benzoimidazole] had an inhibition at 1 µM of 45%. Moreover, the IC50 on human vanilloid-1 (hVR1) was determined as 8570 nM.

(Values after patent publication US9199965B2, “Benzoimidazole derivatives and pharmaceutical composition comprising the same” (Daewoong Co., Ltd., priority 2005, dated 2015).)
